Measured values: patent publication US9970037B2, “Methods and materials for making simvastatin and related compounds” (The Regents of the University of California, priority 2006, dated 2018)

Experiments:
LovD = molecular target: T1, LovD (Aspergillus terreus, UniProt Q9Y7D1); set-up: 6xHis (N); made in house; host or cells: E. coli BL21(DE3)/pAW31 (pET28a); settings: Xie et al., 2006; cited from earlier work
T1 sequence (Q9Y7D1 1-413): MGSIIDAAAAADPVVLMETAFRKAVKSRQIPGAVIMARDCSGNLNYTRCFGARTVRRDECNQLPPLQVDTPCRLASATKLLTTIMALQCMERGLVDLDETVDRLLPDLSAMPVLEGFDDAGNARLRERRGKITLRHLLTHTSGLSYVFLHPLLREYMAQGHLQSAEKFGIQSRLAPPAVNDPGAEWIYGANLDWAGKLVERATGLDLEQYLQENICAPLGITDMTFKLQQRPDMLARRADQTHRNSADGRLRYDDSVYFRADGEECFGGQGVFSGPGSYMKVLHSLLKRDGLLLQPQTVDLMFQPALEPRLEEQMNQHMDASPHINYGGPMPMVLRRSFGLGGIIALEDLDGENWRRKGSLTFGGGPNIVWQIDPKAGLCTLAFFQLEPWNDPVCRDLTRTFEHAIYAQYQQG

E. coli BL21(DE3)/pAW31 = test: Whole cell biocatalysis with E. coli overexpressing LovD; type: cell-based, Escherichia coli; settings: 0.5 mM lovastatin (sodium salt form)
Protocol: The BL21(DE3)/pAW31 overexpression strain was grown in a shake flask (200 mL) to an OD600 of 1.0, at which time 1 mM IPTG, 0.8 mM monacolin J and 4 mM of either benzoyl-SNAC or benzoyl-SMTG were added to the culture. Expression of LovD and bioconversion was performed at 18° C. The culture was extracted and analyzed for the formation of 8-benzoyl-monacolin J. When supplemented with benzoyl-SNAC, 84% conversion of monacolin J was detected within 20 hours post-induction. The product was lactonized and purified by a single silica-gel chromatography step. The NMR spectra confirmed the regioselective benzoylation of the C8 hydroxyl group as the diagnostic H8 multiplet is shifted downfield to δ 5.61.
Fermentation conditions: 500 mL culture with LB media with 30 mg/L kanamycin. At OD600 of 1.0, cells were concentrated to a final OD600 of 5.0 and induced with 1 mM IPTG. Substrates monacolin J and α-dimethylbutyryl-SNAC were added to a final concentration of 1 mM and 4 mM. At different time points, culture samples were collected, centrifuged, filtered and injected on to HPLC (20 μL). Extraction conditions: When maximum conversion was reached, the broth was acidified to pH of 2.0, extracted with ethyl acetate, dried and redissolved in toluene.
Whole-cell catalytic synthesis of simvastatin acid from MJ acid and DMB-S-MMP were performed as described (see, e.g., Xie et al., (2007) Appl Environ Microbiol 73: 2054-2060). The E. coli BL21(DE3)/pAW31 and YT2/pAW31 strains were cultured side-by-side for comparison. A single colony of the freshly transformed strains was used to inoculate a 5 mL LB culture supplemented with 35 mg/L kanamycin and grown overnight at 37° C. The next morning, 100 μL of the overnight culture was inoculated into 50 mL cultures containing LB broth, F1 minimal medium and F1 medium supplemented with 0.15 mg/L biotin. Growth rates were monitored by periodically measuring the OD600 reading. When OD600 reached ˜0.5, 100 μM IPTG was added to the culture and expression of LovD was performed at 20° C. for 16 hours. To mimic high density fermentation conditions, the cells were concentrated 10-fold before addition of substrates. Typically, a 14 mL aliquot of the culture was transferred to a 15 mL centrifuge tube and the cells were collected by centrifugation (4° C., 4000 g, 10 minutes). The cell pellet was gently resuspended in 1316 μl of the supernatant, followed by addition of 84 μl of a MJ acid stock solution (250 mM in H2O) (final concentration 15 mM). The concentrated culture was then separated into seven 200 μL samples and 1.2 μL of pure DMB-S-MMP was added to each sample (final concentration ˜25 mM). The culture was then shaken at 300 rpm at room temperature. At each time point, a total extraction was performed by adding 10 μL 20% SDS to lyse the cells, followed by liquid-liquid extraction with 500 μL EA/1% AcOH. The organic phase was removed, evaporated, and redissolved in 50 μL ACN for HPLC analysis. For the BL21(DE3) sample, an additional 1.2 μL aliquot of DMB-S-MMP was added after 12 hours to replenish the hydrolyzed substrates.
The E. coli BL21(DE3)/pAW31 strain was grown in LB medium at 37° C. to an OD600 of 0.5, at which time 100 μM IPTG was added to the culture and expression was performed at RT for 16 hours. A 10 ml culture was transferred to a 15 mL centrifuge tube. The cells were collected by centrifugation (4000 g, 10 minutes). The cell pellet was resuspended in 957 μl of the supernatant. The pH was adjusted to pH 7.9 with 1.0 N NaOH, followed by addition of 33 μl 450 mM MJ (final concentration 15 mM) and 6 μl pure DMB-S-MMP (final concentration ˜25 mM). The culture was then shaken at 300 rpm at room temperature. At each time point, a 4 μL aliquot was removed from the reaction mixture, quenched in 300 μL ethyl acetate containing 1% TFA.

CC[C@H](C)C(=O)O[C@H]1C[C@@H](C)C=C2C=C[C@H](C)[C@H](CC[C@@H]3C[C@@H](O)CC(=O)O3)[C@H]21 [lovastatin, reference compound]
kcat of LovD hydrolysis of lovastatin into monacolin J in vitro (previously reported) (LovD): 0.0035 s⁻¹ | conversion rate of whole cell hydrolysis (E. coli BL21(DE3)/pAW31): ~0.01 mM per hour | hydrolysis to monacolin J by whole cells (E. coli BL21(DE3)/pAW31; 48 hours): 91%
